Assays:
[1] = acidic range, pH 2.7, 0.1% aqueous formic acid/acetonitrile
Procedure: (§1) Calibration was carried out using unbranched alkan-2-ones (having from 3 to 16 carbon atoms) with known log P values (the log P values were determined by the retention times using linear interpolation between two successive alkanones).

Phytophthora infestans = type: in vivo; details: tomato plants, protective, active compound concentration 500 ppm, evaluation 7 days after inoculation
Plasmopara viticola = test: Plasmopara test (grapevine)/protective; type: in vivo; details: protective, active compound concentration 500 ppm, evaluation 6 days after inoculation
Procedure: Plasmopara Test (Grapevine)/Protective
To produce a suitable preparation of active compound, 1 part by weight of active compound is mixed with the stated amounts of solvent and emulsifier, and the concentrate is diluted with water to the desired concentration.
To test for protective activity, young plants are sprayed with the preparation of active compound at the stated application rate. After the spray coating has dried on, the plants are inoculated with an aqueous spore suspension of Plasmopara viticola and then remain in an incubation cabin at about 20° C. and 100% relative atmospheric humidity for 1 day. The plants are then placed in a greenhouse at about 21° C. and about 90% atmospheric humidity for 4 days. The plants are then moistened and placed in an incubation cabin for 1 day.
Evaluation is carried out 6 days after the inoculation. 0% means an efficacy which corresponds to that of the control, whereas an efficacy of 100% means that no infection is observed.

[2] = pH 2.7, log P [a], acidic range, pH 2.7, 0.1% aqueous formic acid/acetonitrile

Procedure for physchem: as §1

| SMILES | log P [a] [1] | efficacy (Phytophthora infestans) [%] | efficacy (Plasmopara viticola) [%] | chromatographic logP (physchem; [2]) | chromatographic logP (physchem; pH 7.8) |
| --- | --- | --- | --- | --- | --- |
| O=C(/C=C/c1csc(C2CCN(C(=O)Cn3nc(C(F)F)cc3C(F)F)CC2)n1)c1cccc2ccccc12 [Compound I-46] | 2.84^[a] | 95 | 100 |  |  |
| O=C(/C=C/c1csc(C2CCN(C(=O)Cn3nc(C(F)F)cc3C(F)F)CC2)n1)c1ccccc1I [Compound I-33] | 3.65^[a]; | 95 | 89 |  |  |
| O=C(CC1CCCCC1)c1csc(C2CCN(C(=O)Nc3cc(C(F)F)ccc3C(F)F)CC2)n1 [Compound I-30] | 4.3^[a]; | 95 | 85 |  |  |
| O=C(/C=C/c1csc(C2CCN(C(=O)Cn3nc(C(F)F)cc3C(F)F)CC2)n1)c1cc(F)ccc1Cl [Compound I-35] | 3.64^[a]; | 95 | 89 |  |  |
| Cc1ccc(Cl)cc1NC(=O)N1CCC(c2nc(C(=O)CC3CCCCC3)cs2)CC1 [Compound I-25, N-(5-Chloro-2-methylphenyl)-4-[4-(cyclohexylacetyl)-1,3-thiazol-2-yl]piperidine-1-carboxamide] |  | 100 | 96 | 4.51 | 4.55 |
| O=C(/C=C/c1csc(C2CCN(C(=O)Cn3nc(C(F)F)cc3C(F)F)CC2)n1)C1CCCCC1 [Compound I-44] | 3.89^[a] | 95 | 74 |  |  |
| O=C(/C=C/c1csc(C2CCN(C(=O)Cn3nc(C(F)F)cc3C(F)F)CC2)n1)C1CCCC1 [Compound I-49] | 3.52^[a] | 90 | 79 |  |  |
| O=C(/C=C/c1csc(C2CCN(C(=O)Cn3nc(C(F)F)cc3C(F)F)CC2)n1)c1c(F)cc(F)cc1F [Compound I-57] | 3.51^[a]; | 98 | 91 |  |  |
| CC1CCCCC1C(=O)C=Cc1csc(C2CCN(C(=O)Cn3nc(C(F)F)cc3C(F)F)CC2)n1 (mixture of isomers) [Compound I-50] | 4.11^[a] | 95 | 93 |  |  |
| C#CCOc1ccccc1C(=O)/C=C/c1csc(C2CCN(C(=O)Cn3nc(C(F)F)cc3C(F)F)CC2)n1 [Compound I-55] | 3.28^[a] | 98 | 100 |  |  |
| Cc1ccccc1C(=O)/C=C/c1csc(C2CCN(C(=O)Cn3nc(C(F)F)cc3C(F)F)CC2)n1 [Compound I-45] | 3.56^[a] | 95 | 100 |  |  |
| O=C(/C=C/c1csc(C2CCN(C(=O)Cn3nc(C(F)F)cc3C(F)F)CC2)n1)c1c(F)cccc1Cl [Compound I-36] | 3.54^[a]; | 100 | 96 |  |  |
| O=C(/C=C/c1csc(C2CCN(C(=O)Cn3nc(C(F)F)cc3C(F)F)CC2)n1)c1ccccc1Br [Compound I-29] | 3.51^[a]; | 100 | 95 |  |  |
| O=C(/C=C/c1csc(C2CCN(C(=O)Cn3nc(C(F)F)cc3C(F)F)CC2)n1)c1c(Cl)cccc1Cl [Compound I-43] | 3.7^[a] | 90 | 100 |  |  |
| O=C(/C=C/c1csc(C2CCN(C(=O)Cn3nc(C(F)F)cc3C(F)F)CC2)n1)c1c(F)cccc1F [Compound I-22, (2E)-3-[2-(1-{[3,5-Bis(difluoromethyl)-1H-pyrazol-1-yl]acetyl}piperidin-4-yl)-1,3-thiazol-4-yl]-1-(2,6-difluorophenyl)prop-2-en-1-one] |  | 100 | 100 | 3.35 |  |
| O=C(/C=C/c1csc(C2CCN(C(=O)Cn3nc(C(F)F)cc3C(F)F)CC2)n1)c1ccc(F)cc1Br [Compound I-34] | 3.7^[a]; | 95 | 84 |  |  |
| O=C(/C=C/c1csc(C2CCN(C(=O)Cn3nc(C(F)F)cc3C(F)F)CC2)n1)c1cccc(F)c1 [Compound I-52] | 3.35^[a] | 98 | 94 |  |  |
| O=C(/C=C/c1csc(C2CCN(C(=O)Cn3nc(C(F)F)cc3C(F)F)CC2)n1)c1ccccc1Cl [Compound I-42] | 3.51^[a] | 100 | 90 |  |  |
| O=C(CC1CCCCC1)c1csc(C2CCN(C(=O)Cn3nc(C(F)F)cc3C(F)F)CC2)n1 [Compound I-24, 2-[3,5-Bis(difluoromethyl)-1H-pyrazol-1-yl]-1-{4-[4-(cyclohexylacetyl)-1,3-thiazol-2-yl]piperidin-1-yl}ethanone] |  | 94 | 100 |  |  |
| CC(CC(=O)c1c(F)cccc1F)c1csc(C2CCN(C(=O)Cn3nc(C(F)F)cc3C(F)F)CC2)n1 (centres unmarked) [Compound I-51] |  | 98 | 100 |  |  |
